Measurements taken from patent publication US7699995B2, “Water treatment method” (priority 2006, dated 2010).

Key:
[1] = system: Mycobacterium immunogenum (ATCC 700505); experiment: MBC test, transfer from MIC plates to fresh media; type: cell-based; conditions: M. immunogenum, no survivors after 2 days in fresh media
Experimental: (§1) Bacterial strains tested included Mycobacterium chelonae (ATCC 14472) and Mycobacterium immunogenum (ATCC 700505). Mycobacterial cultures were grown overnight at 30° C. (M. immunogenum) or 37° C. (M. chelonae), in a rotary shaking bath in Middlebrook […] with Middlebrook enrichment. A 1:20 dilution of the overnight culture was made into the appropriate test media and inoculated to give a final concentration of 10^6 to 10^7 CFU/ml.
(§2) MBC tests were conducted by transferring samples from the MIC test samples into fresh media and observing for growth of the culture. Growth was determined as above. In this test using Biomek 2000 Workstation, 10 μl samples taken from the 96-well MIC plates were placed in […] of fresh growth media to determine the number of surviving organisms for the same gradient of biocide concentrations. These plates were incubated and read in the same fashion as the MIC plates.

[2] = system: Mycobacterium chelonae (ATCC 14472); experiment: MBC test, transfer from MIC plates to fresh media; type: cell-based; conditions: M. chelonae, no survivors after 2 days in fresh media
Experimental: as §1, §2

[3] = Stability in buffered water at various pH and temperatures (HPLC); type: physicochemical
Experimental: Biocides were added to buffer solutions and stability was tested at 22° and 50° C. using HPLC to measure biocide concentration at 0 time, 21 days, 43 days, and 88-90 days. Biocide stability was determined in the following buffer solutions: pH2, 0.01M HCl; pH6, 0.1M KH2PO4; pH8, 0.025M borate; pH10, 0.025M borate; pH12, 0.05M Na2HPO4. Biocide concentrations tested were 100 ppm MI, 200 ppm BIT, 44 ppm CMI.

Pseudomonas diminuta #99 = experiment: MIC at pH 7.1 or pH 9.0, half strength TSB; type: cell-based; conditions: three days
Experimental: Minimum inhibitory concentration (MIC) studies were conducted to determine the lowest level of biocide required to inhibit growth of bacteria and fungi. Tests were conducted in 96-well microtiter plates. Biocides were added to growth media in the plates and serially diluted to obtain a range of concentrations. Tests were conducted in one-half strength trypticase soy broth (TSB; adjusted to pH 7.1 or pH 9.0). Bacteria and fungi were added to samples at 10^6 colony forming units per ml and incubated at 30° C. for three days. MIC values were determined visually on a growth no-growth basis.

[4] = system: natural, resident populations of Mycobacterium; experiment: Eradication of mycobacteria in naturally contaminated in-use metalworking fluids; type: cell-based; conditions: for No. of Fluids with ≧99% Kill (2-log reduction): of six fluids, 48 hours
Experimental: A comparative study was conducted evaluating six metalworking fluid biocides versus natural, resident populations of Mycobacterium from six in-use metalworking fluids. CMIT/MIT, CMIT/MIT/MCC, MIT, BIT, triazine, and PCMC microbicides were tested under controlled laboratory conditions to determine their efficacy at the maximum manufacturer's recommended dose rate (Table 2). The metalworking fluids were known to contain high levels of mycobacteria prior to dosing with biocides. Samples were then dosed with biocides, incubated with agitation at room temperature and viable mycobacteria counts determined after 48 hours by plating onto Middlebrook 7H10 medium, with Tween 80, glycerin, cyclohexamide, chloramphenicol, and gentamycin to suppress the growth of unwanted microorganisms.
The six metalworking fluid samples containing mycobacteria study from Example 7, were also tested using the same biocides with dosing at 50% of the maximum manufacturer's recommended rate (Table 2) under the same conditions. These metalworking fluids were known to contain high levels of mycobacteria prior to dosing with biocides. Samples were then dosed with biocides, incubated with agitation at room temperature and viable mycobacteria counts determined after 48 hours by plating onto Middlebrook 7H10 medium, with Tween 80, glycerin, cyclohexamide, chloramphenicol, and gentamycin to suppress the growth of unwanted microorganisms.

[5] = system: Mycobacterium immunogenum (ATCC 700505); experiment: High resolution MIC test, pure culture, 1/10x TSB; type: cell-based; conditions: M. immunogenum, 24 hours at 30° C.
Experimental: (§3) The lowest concentration of microbicide required to inhibit bacteria was determined by a high resolution MIC test. Varying amounts of each microbicide were added to media in a 96-well microtiter plate. The media used for the MIC tests was 10% Trypicase Soy Broth ( 1/10× TSB). […] serial dilutions were performed on a Biomek 2000 Workstation to obtain a range of closely spaced concentrations of microbicides. A cell suspension of stationary phase microorganisms, adjusted to provide 10^6 colony forming units (CFU)/mL in each well for bacteria was added to the microtiter plate. The microtiter plates were incubated for 24 hours at 30° C. for Mycobacterium immunogenum and 37° C. for Mycobacterium chelonae. The presence or absence of microbial growth was determined by measuring the turbidity in each well using a Thermomax microplate reader set at an absorbance of 650 nm. The lowest concentration of compound in which no growth was observed was considered the MIC value for the microbicide. The MIC value for each microbicide was determined from the average of four determinations for bacteria.
as §1

[6] = system: Mycobacterium chelonae (ATCC 14472); experiment: High resolution MIC test, pure culture, 1/10x TSB; type: cell-based; conditions: M. chelonae, 24 hours at 37° C.
Experimental: as §3, §1

## O=c1[nH]sc2ccccc12 [BIT, 1,2-benzisothiazolin-3-one, reference compound]
[1]
  Minimum Biocidal Concentration: 188 ppm active
[2]
  Minimum Biocidal Concentration: 75 ppm active
[3]; 22° C., day 0
  Percent Remaining at: pH 2: 100%
  Percent Remaining at: pH 6: 100%
  Percent Remaining at: pH 8: 100%
  Percent Remaining at: pH 10: 100%
  Percent Remaining at: pH 12: 100%
[3]; 22° C., day 21
  Percent Remaining at: pH 2: 97%
  Percent Remaining at: pH 6: 100%
  Percent Remaining at: pH 8: 98%
  Percent Remaining at: pH 10: 100%
  Percent Remaining at: pH 12: 69%
[3]; 22° C., day 43
  Percent Remaining at: pH 2: 83%
  Percent Remaining at: pH 6: 86%
  Percent Remaining at: pH 8: 77%
  Percent Remaining at: pH 10: 85%
  Percent Remaining at: pH 12: 55%
[3]; 22° C., day 88
  Percent Remaining at: pH 2: 95%
  Percent Remaining at: pH 6: 100%
  Percent Remaining at: pH 8: 84%
  Percent Remaining at: pH 10: 96%
  Percent Remaining at: pH 12: 63%
[3]; 50° C., day 0
  Percent Remaining at: pH 2: 100%
  Percent Remaining at: pH 6: 100%
  Percent Remaining at: pH 8: 100%
  Percent Remaining at: pH 10: 100%
  Percent Remaining at: pH 12: 100%
[3]; 50° C., day 21
  Percent Remaining at: pH 2: 95%
  Percent Remaining at: pH 6: 100%
  Percent Remaining at: pH 8: 94%
  Percent Remaining at: pH 10: 100%
  Percent Remaining at: pH 12: 68%
[3]; 50° C., day 43
  Percent Remaining at: pH 2: 80%
  Percent Remaining at: pH 6: 88%
  Percent Remaining at: pH 8: 73%
  Percent Remaining at: pH 10: 81%
  Percent Remaining at: pH 12: 55%
[3]; 50° C., day 90
  Percent Remaining at: pH 2: 93%
  Percent Remaining at: pH 6: 100%
  Percent Remaining at: pH 8: 89%
  Percent Remaining at: pH 10: 95%
  Percent Remaining at: pH 12: 68%
Pseudomonas diminuta #99; pH 7.1, 30° C.
  Minimum Inhibitory Concentration: 3.2 ppm
Pseudomonas diminuta #99; pH 9.0, 30° C.
  Minimum Inhibitory Concentration: 12.5 ppm
[4]; Fluid 1, 48 hours, 50% of recommended maximum dose
  Log Reduction in Mycobacterial Counts versus Control (no biocide): 0.00 log
[4]; Fluid 1, 48 hours, 100% of recommended maximum dose
  Log Reduction in Mycobacterial Counts versus Control (no biocide): 0.00 log
[4]; Fluid 2, 48 hours, 50% of recommended maximum dose
  Log Reduction in Mycobacterial Counts versus Control (no biocide): 0.00 log
[4]; Fluid 2, 48 hours, 100% of recommended maximum dose
  Log Reduction in Mycobacterial Counts versus Control (no biocide): 0.00 log
[4]; Fluid 3, 48 hours, 50% of recommended maximum dose
  Log Reduction in Mycobacterial Counts versus Control (no biocide): 0.00 log
[4]; Fluid 3, 48 hours, 100% of recommended maximum dose
  Log Reduction in Mycobacterial Counts versus Control (no biocide): 0.60 log
[4]; Fluid 4, 48 hours, 50% of recommended maximum dose
  Log Reduction in Mycobacterial Counts versus Control (no biocide): 0.00 log
[4]; Fluid 4, 48 hours, 100% of recommended maximum dose
  Log Reduction in Mycobacterial Counts versus Control (no biocide): 0.00 log
[4]; Fluid 5, 48 hours, 50% of recommended maximum dose
  Log Reduction in Mycobacterial Counts versus Control (no biocide): 0.00 log
[4]; Fluid 5, 48 hours, 100% of recommended maximum dose
  Log Reduction in Mycobacterial Counts versus Control (no biocide): 0.06 log
[4]; Fluid 6, 48 hours, 50% of recommended maximum dose
  Log Reduction in Mycobacterial Counts versus Control (no biocide): 0.00 log
[4]; Fluid 6, 48 hours, 100% of recommended maximum dose
  Log Reduction in Mycobacterial Counts versus Control (no biocide): 0.00 log
[4]; 50% of recommended maximum dose
  No. of Fluids with ≧99% Kill (2-log reduction): 0
[4]; 100% of recommended maximum dose
  No. of Fluids with ≧99% Kill (2-log reduction): 0
[5]
  Minimum Inhibitory Concentration: 113 ppm active
[6]
  Minimum Inhibitory Concentration: 63 ppm active
